Consider 11 compounds from ChEMBL document CHEMBL1201862, “PubChem BioAssay data set” (2004).

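These data come from cells grown in 96-well plates and exposed to compound for 48 hours at five concentrations. GI50 = concentration required for 50% inhibition of growth.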 Active and inactive are the calls of the source. No stated cut-off is given here; in the data, active = GI50 up to about 1.1 µM and inactive = higher.

Test systems include ACHN; COLO 205; HCT-116; HCT-15; K562; Malme-3M; NCI-H226; NCI-H23; NCI-H522; SNB-19; SR; U-251; UACC-257; T47D.
Test in all cases: inhibition of tumour cell growth, NCI panel, 48 h

For the compound `CNS(=O)(=O)NNS(=O)(=O)c1ccccc1`, the GI50 is > 100 µM (inactive) in the experiment with ACHN; > 100 µM (inactive) in the experiment with COLO 205; > 100 µM (inactive) in the experiment with HCT-116; > 100 µM in the experiment on HCT-15; > 100 µM (inactive) with K562; > 100 µM (inactive) with Malme-3M. Moreover, the GI50 in the experiment on NCI-H226, in the experiment with NCI-H23, in the experiment with NCI-H522, in the experiment on SNB-19, in the experiment with SR and in the experiment with U-251 was > 100 µM (inactive) each time. In addition, the GI50 with UACC-257 is > 100 µM (inactive).

On to `C[Si](C)(C)OC1CC(=O)OC1n1cc(F)c(=O)[nH]c1=O` (stereo unspecified), for which the GI50 with ACHN is 11.7 µM (inactive); in the experiment with COLO 205, 21 µM (inactive); with HCT-116, 5.79 µM (inactive); with HCT-15, 9.44 µM; with K562, 26.4 µM (inactive); in the experiment on Malme-3M it was 19.2 µM (inactive). Moreover, the GI50 in the experiment with NCI-H226 is > 86.9 µM (inactive); with NCI-H23, > 27.8 µM (inactive); in the experiment on NCI-H522, 19.5 µM (inactive); with SNB-19, > 55.1 µM (inactive); in the experiment with SR it was 2.31 µM (inactive); in the experiment on U-251 it was 43 µM (inactive). Besides, the GI50 in the experiment on UACC-257 is > 64.3 µM (inactive).

As to `C=C1C(C)C2C(Cc3ccccc3)NC(=O)C23OC(=O)/C=C\CC(=O)CCC(C)C/C=C/C3C1O` (stereo unspecified), the GI50 in the experiment with COLO 205 is 1.34 µM (inactive); with HCT-116, 2.54 µM (inactive); in the experiment on HCT-15, 1.28 µM; in the experiment on K562, 0.757 µM (active); in the experiment with Malme-3M, 1.82 µM (inactive); in the experiment on NCI-H226, 1.92 µM (inactive). The GI50 with NCI-H23 was 3.1 µM (inactive); in the experiment on NCI-H522, 0.859 µM (active); in the experiment with SNB-19, 2.6 µM (inactive); with T47D it was 0.635 µM (active); in the experiment with U-251 it was 2.54 µM (inactive); in the experiment with UACC-257, 1.36 µM (inactive).

Regarding `COC(=O)c1ccc(Cl)cc1NC(=O)C1CCCCC1`, the GI50 with ACHN was > 100 µM (inactive); with COLO 205, > 100 µM (inactive); with HCT-116, > 100 µM (inactive); in the experiment on HCT-15, > 100 µM; with K562, > 100 µM (inactive); in the experiment with Malme-3M it was > 100 µM (inactive). For the same compound, the GI50 in the experiment on NCI-H226, with NCI-H23, with NCI-H522, with SNB-19, in the experiment on SR and with U-251 was > 100 µM (inactive) each time. In addition, the GI50 with UACC-257 was > 100 µM (inactive).

On to `COC1OC(COS(=O)(=O)c2ccc(C)cc2)C(O)C(OS(=O)(=O)c2ccc(C)cc2)C1OS(=O)(=O)c1ccc(C)cc1` (stereo unspecified), for which the GI50 in the experiment with ACHN is > 100 µM (inactive); with COLO 205 it was > 100 µM (inactive); with HCT-116 it was > 100 µM (inactive); with HCT-15, > 100 µM; with K562, > 100 µM (inactive); in the experiment with Malme-3M, > 100 µM (inactive). The GI50 in the experiment on NCI-H226, in the experiment with NCI-H23, in the experiment on NCI-H522, with SNB-19, in the experiment on SR and with U-251 was > 100 µM (inactive) throughout. Further, in the experiment on UACC-257, the GI50 is > 100 µM (inactive).

As to `C/C=C1\CN2CCc3c([nH]c4ccccc34)C2C=C1CCO` (stereo unspecified), the GI50 is > 340 µM (inactive) in the experiment with ACHN; > 340 µM (inactive) in the experiment with COLO 205; > 340 µM (inactive) with HCT-116; > 340 µM in the experiment with HCT-15; > 340 µM (inactive) in the experiment with K562; > 340 µM (inactive) with Malme-3M. Further, the GI50 in the experiment on NCI-H226, in the experiment with NCI-H23, with NCI-H522, with SNB-19, with SR and in the experiment with U-251 was > 340 µM (inactive) throughout. In addition, the GI50 in the experiment on UACC-257 is > 340 µM (inactive).

Regarding `CC(=O)n1c2ccccc2c2nc3nc(Oc4ccc(C)cc4)c4ccccc4c3cc21`, the GI50 with ACHN was > 100 µM (inactive); in the experiment with COLO 205, > 100 µM (inactive); in the experiment on HCT-116 it was > 100 µM (inactive); in the experiment with HCT-15, > 100 µM; in the experiment with K562 it was > 100 µM (inactive); with Malme-3M it was > 100 µM (inactive). The GI50 with NCI-H226 was > 100 µM (inactive); in the experiment with NCI-H23 it was 21.8 µM (inactive); in the experiment with NCI-H522 it was > 100 µM (inactive); in the experiment with SNB-19, 92 µM (inactive); with SR, > 100 µM (inactive); with U-251 it was 41.6 µM (inactive). The GI50 with UACC-257 was > 100 µM (inactive).

With `Cc1ccc(NC(=O)COC(=O)c2cccc3c(=O)c4ccccc4[nH]c23)cc1`, the GI50 in the experiment on ACHN is 27 µM (inactive); in the experiment with COLO 205, 21.9 µM (inactive); with HCT-116, 14.6 µM (inactive); in the experiment with K562 it was 32.7 µM (inactive); with Malme-3M it was 47 µM (inactive); in the experiment on NCI-H226 it was 26.5 µM (inactive). Moreover, the GI50 in the experiment with NCI-H23 was 17.8 µM (inactive); with NCI-H522, 9.29 µM (inactive); with SNB-19, 40.6 µM (inactive); in the experiment on SR, 13 µM (inactive); in the experiment with U-251 it was 29.4 µM (inactive); with UACC-257 it was 39.9 µM (inactive).

As to `C=C(CCCCC)CN1CCCC1[C@@](C)(O)CC(=O)OCC` (stereo partly specified), the GI50 is > 100 µM (inactive) with ACHN; > 100 µM (inactive) in the experiment on COLO 205; > 100 µM (inactive) in the experiment on HCT-116; > 100 µM with HCT-15; > 100 µM (inactive) with K562; > 100 µM (inactive) in the experiment on Malme-3M. The GI50 was > 100 µM (inactive) in the experiment on NCI-H226; > 100 µM (inactive) in the experiment with NCI-H23; > 100 µM (inactive) in the experiment with NCI-H522; > 100 µM (inactive) in the experiment on SNB-19; 71.8 µM (inactive) in the experiment with SR; > 100 µM (inactive) in the experiment on U-251. For the same compound, in the experiment with UACC-257, the GI50 is > 100 µM (inactive).

In the case of `Nc1nc(N)c(-c2ccc(Cl)cc2)c(CCC(=O)Nc2cccc(C(F)(F)F)c2)n1`, the GI50 was > 100 µM (inactive) in the experiment on ACHN; > 100 µM (inactive) in the experiment with COLO 205; > 100 µM (inactive) with HCT-116; > 100 µM with HCT-15; > 100 µM (inactive) in the experiment with K562; > 100 µM (inactive) in the experiment on Malme-3M. The GI50 in the experiment on NCI-H226, with NCI-H23, in the experiment on NCI-H522, in the experiment with SNB-19, in the experiment on SR and with U-251 was > 100 µM (inactive) throughout. Besides, in the experiment on UACC-257, the GI50 is > 100 µM (inactive).

In the case of `CCCCNC(=O)CCN(C(=O)O)S(=O)(=O)c1ccc(NC(=O)c2ccccc2)cc1`, the GI50 in the experiment with ACHN was > 100 µM (inactive); in the experiment on COLO 205, 64.3 µM (inactive); with HCT-116, > 100 µM (inactive); in the experiment on HCT-15, > 100 µM; in the experiment on K562 it was 37 µM (inactive); in the experiment with Malme-3M it was > 100 µM (inactive). For the same compound, the GI50 in the experiment on NCI-H226 is > 100 µM (inactive); in the experiment with NCI-H23, > 100 µM (inactive); in the experiment on NCI-H522 it was > 100 µM (inactive); in the experiment on SNB-19, > 100 µM (inactive); with SR, > 100 µM (inactive); in the experiment with U-251 it was 77.6 µM (inactive). The GI50 in the experiment with UACC-257 was > 100 µM (inactive).
